Earlier results, collected in patent US20260240770A1, “LIQUID FORMULATION COMPRISING TRILOSTANE” (NORBROOK LABORATORIES LIMITED, priority 2023, published 2026).

Conditions: low water solubility and high membrane permeability

Q: For `C[C@]12CC[C@H]3[C@@H](CC[C@@]45O[C@@H]4C(O)=C(C#N)C[C@]35C)[C@@H]1CC[C@@H]2O` [Trilostane, 4α,5-epoxy-3,17β-dihydroxy-5α-androst-2-ene-2-carbonitrile], which BCS class is on record?
A: Class Two
